The source of these data is patent publication US8710198B2, “Caprazene as a novel compound and derivatives thereof, and caprazol as a novel compound and derivatives thereof” (Meiji Seika Pharma Co., Ltd., priority 2003, dated 2014).

In one test the test system is bacteria. In words: Antibacterial activity. The test is classed as cell-based. To be noted: statement in words.
The target of the next test is enzyme MraY (Escherichia coli, UniProt P0A6W3). To be noted: statement in words.
The test system of the next test is Micrococcus luteus FDA16. Briefly: Minimum growth inhibitory concentration on agar culture medium by serial dilution method (Japanese Society of Chemotherapy). Format: cell-based. An outline of the steps: (§1)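 MICs (mcg/ml) were determined by serial dilution on agar culture medium, following the Japanese Society of Chemotherapy standard method.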
Test [1] deals with Staphylococcus aureus FDA209P. Described as above. The test is classed as cell-based. An outline of the steps:
as §1

Test [2] has as its system Staphylococcus aureus ATCC607. Briefly: Minimum growth inhibitory concentration on agar medium by serial dilution method, Table 14. The test is classed as cell-based. As for the experimental part:
Minimum growth inhibitory concentrations (mcg/ml) of caprazene-1′″-amide derivatives of the formula (II) against some of microorganisms were measured on an agar culture medium by a serial dilution method according to the standard method as provided by Japanese Society of Chemotherapy. For the cultivation of Mycobacterium smegmatis (one of […]), however, there was used an agar culture medium with the addition of 1% glycerine (the same applies to in the following tests).
Minimum growth inhibitory concentrations (mcg/ml) of some of the derivative of the formula (VIII) against a variety of microorganisms were measured on an agar medium by a serial dilution method according to the standard method as provided by Japanese Society of Chemotherapy.

The test system of the next test is acid-fast bacteria. To be noted: statement in words, WO 01/12643A1 / EP 1211259A1; cited from earlier work.

Sequence of enzyme MraY (P0A6W3 whole entry): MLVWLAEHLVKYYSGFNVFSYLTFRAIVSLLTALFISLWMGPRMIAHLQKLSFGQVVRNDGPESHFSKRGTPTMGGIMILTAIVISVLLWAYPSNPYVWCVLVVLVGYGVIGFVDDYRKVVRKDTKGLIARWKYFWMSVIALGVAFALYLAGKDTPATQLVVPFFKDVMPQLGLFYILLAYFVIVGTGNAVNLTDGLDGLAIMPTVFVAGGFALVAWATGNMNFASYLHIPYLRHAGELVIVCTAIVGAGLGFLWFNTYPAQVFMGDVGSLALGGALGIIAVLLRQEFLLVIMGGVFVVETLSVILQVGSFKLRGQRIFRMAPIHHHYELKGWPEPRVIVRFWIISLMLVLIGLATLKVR

Regarding `CN1C(=O)[C@H](C(O[C@@H]2O[C@H](CN)[C@@H](O)[C@H]2O)[C@H]2O[C@@H](n3ccc(=O)[nH]c3=O)[C@H](O)[C@@H]2O)N(C)CC=C1C(=O)O` (stereo partly drawn) [Caprazene, caprazene], the antibacterial activity entry in the test with bacteria was “no antibacterial activity”. Also, the “inhibitory activity against enzyme MraY” value against enzyme MraY is “inhibitory activity against enzyme MraY”.
For `CCCCCCCCCCN1C(=O)C(C(O)CN(C)C(C(=O)NC)C(OC2OC(CN)C(O)C2O)C2OC(n3ccc(=O)[nH]c3=O)C(O)C2O)N(C)C1=O` (stereo not drawn) [Compound VIII-E], the “Minimum growth inhibitory concentration (mcg/ml) against bacteria Micrococcus luteus FDA16” value in the test on Micrococcus luteus FDA16 was 6.25 µg/mL. In test [1], the “Minimum growth inhibitory concentration (mcg/ml) against bacteria Staphylococcus aureus FDA209P” value turned out to be 25 µg/mL. Further, the “Minimum growth inhibitory concentration (mcg/ml) against bacteria Staphylococcus aureus ATCC607” value in test [2] was determined as 6.25 µg/mL.
In the case of `CCCCCCCCCCCN1C(=O)C(C(O)CN(C)C(C(=O)NC)C(OC2OC(CN)C(O)C2O)C2OC(n3ccc(=O)[nH]c3=O)C(O)C2O)N(C)C1=O` (stereo not drawn) [Compound VIII-F], in the test on Micrococcus luteus FDA16, the “Minimum growth inhibitory concentration (mcg/ml) against bacteria Micrococcus luteus FDA16” value was determined as 6.25 µg/mL. Further, the “Minimum growth inhibitory concentration (mcg/ml) against bacteria Staphylococcus aureus FDA209P” value in test [1] turned out to be 25 µg/mL. For the same compound, the “Minimum growth inhibitory concentration (mcg/ml) against bacteria Staphylococcus aureus ATCC607” value in test [2] is 6.25 µg/mL.
Regarding `CCCCCCCCCCCCN1C(=O)C(C(O)CN(C)C(C(=O)NC)C(OC2OC(CN)C(O)C2O)C2OC(n3ccc(=O)[nH]c3=O)C(O)C2O)N(C)C1=O` (stereo not drawn) [Compound VIII-G], the “Minimum growth inhibitory concentration (mcg/ml) against bacteria Micrococcus luteus FDA16” value in the test with Micrococcus luteus FDA16 amounted to 6.25 µg/mL. Further, the “Minimum growth inhibitory concentration (mcg/ml) against bacteria Staphylococcus aureus FDA209P” value in test [1] worked out at 25 µg/mL. Besides, the “Minimum growth inhibitory concentration (mcg/ml) against bacteria Staphylococcus aureus ATCC607” value in test [2] came to 12.5 µg/mL.
For the compound `CO[C@H]1[C@@H](OC)[C@H](OC(=O)C[C@@H](C)CC(=O)O[C@@H](CCCCCCCCC(C)C)CC(=O)O[C@H]2CN(C)[C@@H](C(O[C@@H]3O[C@H](CN)[C@@H](O)[C@H]3O)[C@H]3O[C@@H](n4ccc(=O)[nH]c4=O)[C@H](O)[C@@H]3O)C(=O)N(C)[C@@H]2C(=O)O)O[C@H](C)[C@H]1OC` (stereo partly drawn) [caprazamycin F], in the test on acid-fast bacteria, the “antibacterial activities against acid-fast bacteria” value was “high antibacterial activities”.
Regarding `CN1C[C@H](O)[C@@H](C(=O)O)N(C)C(=O)[C@@H]1[C@H](O[C@@H]1O[C@H](CN)[C@@H](O)[C@H]1O)[C@H]1O[C@@H](n2ccc(=O)[nH]c2=O)[C@H](O)[C@@H]1O` [caprazol], in the test with bacteria, the antibacterial activity entry is “no antibacterial activity”. Further, on enzyme MraY, the “inhibitory activity against enzyme MraY” value was “inhibitory activity against enzyme MraY”.
With caprazamycin B, in the test with acid-fast bacteria, the “antibacterial activities against acid-fast bacteria” value is “high antibacterial activities”.
